Measurements: PMC9573696, “Experimental Examination of Solubility and Lipophilicity as Pharmaceutically Relevant Points of Novel Bioactive Hybrid Compounds” (Molecules, 2022)
≈ marks a conversion by molar mass, not a printed value.

Experiments:
[1] = Partition in system 1-octanol/buffer pH 7.4, shake-flask method; type: physicochemical; details: for logP at 2 days / logD at 2 days: 1-octanol/buffer pH 7.4, pH 7.4, 1-octanol/buffer pH 7.4; for logP at 2 days: from concentrations in mole fraction; for logD at 2 days / logPo/b: from concentrations in mol∙L^−1; for sb × 10^6 (concentration in buffer) / so × 10^4 (concentration in 1-octanol) / xb × 10^7 (mole fraction in buffer) / xo × 10^5 (mole fraction in 1-octanol) / logPo/b: 1-octanol/buffer pH 7.4
Procedure: The partition coefficients of the new hybrid compounds in the model system 1-octanol/buffer pH 7.4 as a lipophilicity surrogate were determined experimentally. […] It is the lipophilic properties that allow the hybrids to move from the water phase to the less hydrophilic octanol phase, where the solute–solvent intermolecular interactions are more favourable. According to the results shown in Table 5, the order of changes in the partition coefficients logPo/b at T = 298.15 K, depending on the substituent nature, is expressed as the inequality: Cl- (1.65) < F- (2.40) < CH3- (2.50). Compounds I and II are the most lipophilic in the series of the studied substances, whereas the introduction of a chlorine atom considerably lowers the partition coefficient (~0.8 log units). This fact agrees with the common concept that lipophilic groups are usually hydrocarbon or fluorine-containing radicals. […] For drugs with such partition coefficients, there is a good balance between the solubility and permeability through passive diffusion and minimum metabolism due to the low binding capacity with enzymes.
The octanol/buffer pH 7.4 partition coefficient logPO/B is measured in a static mode using the shake-flask method. The procedure has been presented as standard in the Organization for Economic Cooperation and Development (OECD) guidelines for testing chemicals. The equipment described above was also used for the determination of the 1-octanol/water partition coefficients. […] The correctness of the obtained value of each compound was verified by checking the mass balance of the starting amount of the compound and the total amount of the compound partitioned between the two phases.
To aim evaluated transfer (partition) thermodynamic functions, the 1-octanol/buffer partition coefficients P^* o/b as the ratio of equilibrium concentrations in the organic (xo) and aqueous phases (xb) expressed in mole fractions were calculated: P* o/b = xo/xb(12)

[2] = test system: C. parapsilosis ATCC 22019; assay: In vitro antifungal activity, microbroth dilution (MIC); type: cell-based; details: C. parapsilosis ATCC 22019
Procedure: (§1) The in vitro antifungal screening results of synthesized compounds was evaluated against three fungal strains: C. parapsilosis ATCC 22019, C. utilis 84, and C. glabrata 61L are summarized in Table 1.
(§2) The in vitro antifungal activity of the target compounds was measured by means of the minimal inhibitory concentrations (MIC) with fluconazole as the control drug. Procedure was carried out by the microbroth dilution method in 96-well plates according to the recommendations of the Clinical and Laboratory Standards Institute. The detailed information was reported previously. The investigated pathogenic species included C. parapsilosis ATCC 22019, C. utilis 84 and C. glabrata 61. The sensitivity was evaluated visually, after the incubation at 35 °C for 24 h and the value was compared with the growth density in the reference culture without the sample. Each test was conducted in triplicate.

C. glabrata 61L = assay: as above; type: cell-based; details: C. glabrata 61L
Procedure: as §1, §2

C. utilis 84 = assay: as above; type: cell-based; details: C. utilis 84
Procedure: as §1, §2

[3] = Thermodynamic functions of transfer 1-octanol/buffer pH 7.4; type: physicochemical; details: 298.15 K
Procedure: The temperature variation of the partition coefficient provides enthalpic and entropic contributions to the free energy of transfer. The thermodynamic transfer functions for hybrids I–III in the 1-octanol/buffer pH 7.4 system were calculated by Equations (12)–(16) and are summarized in Table 6. The standard Gibbs energy values for all the compounds are negative. Therefore, the transfer from the aqueous medium to the organic phase within the studied temperature range is thermodynamically favourable and spontaneous. The standard transfer enthalpies of all the studied compounds are positive, which means the process is endothermic. Energy is consumed during the transfer to overcome the hydrophobic effects in water (destruction of the molecule solvate shell structure), destruction of the solvent–solute interactions in the aqueous medium and creation of a cavity in the organic phase where the solute molecules can enter.
The standard change in Gibbs free energy of transfer (∆trG^o) from the buffer to the organic phase was calculated by Equation (14):∆trG^o = −RTlnP*o/b(14)
The standard change entropy of transfer (∆trS^o) is determined as follows:∆trS^o = (∆trH^o − ∆trG^o)/T(15)

logP at 2 days ([1]; 293.15 K): 2.56
logD at 2 days ([1]; 293.15 K): 1.62
logP at 2 days ([1]; 298.15 K): 2.59
logP at 2 days ([1]; 303.15 K): 2.61
logP at 2 days ([1]; 308.15 K): 2.64
logD at 2 days ([1]; 308.15 K): 1.7
logP at 2 days ([1]; 313.15 K): 2.69
logD at 2 days ([1]; 313.15 K): 1.73
sb × 10^6 (concentration in buffer) ([1]; 293.15 K): 9.29 mol∙L^−1 (printed as sb × 10^6
so × 10^4 (concentration in 1-octanol) ([1]; 293.15 K): 3.89 mol∙L^−1 (printed as so × 10^4
xb × 10^7 (mole fraction in buffer) ([1]; 293.15 K): 1.69 mole fraction (printed as xb ×
xo × 10^5 (mole fraction in 1-octanol) ([1]; 293.15 K): 6.14 mole fraction (printed as xo ×
sb × 10^6 (concentration in buffer) ([1]; 298.15 K): 8.77 mol∙L^−1 (printed as sb × 10^6
so × 10^4 (concentration in 1-octanol) ([1]; 298.15 K): 3.90 mol∙L^−1 (printed as so × 10^4
xb × 10^7 (mole fraction in buffer) ([1]; 298.15 K): 1.60 mole fraction (printed as xb ×
xo × 10^5 (mole fraction in 1-octanol) ([1]; 298.15 K): 6.17 mole fraction (printed as xo ×
logPo/b ([1]; 298.15 K): 1.65
sb × 10^6 (concentration in buffer) ([1]; 303.15 K): 8.29 mol∙L^−1 (printed as sb × 10^6
so × 10^4 (concentration in 1-octanol) ([1]; 303.15 K): 3.91 mol∙L^−1 (printed as so × 10^4
xb × 10^7 (mole fraction in buffer) ([1]; 303.15 K): 1.51 mole fraction (printed as xb ×
xo × 10^5 (mole fraction in 1-octanol) ([1]; 303.15 K): 6.21 mole fraction (printed as xo ×
logPo/b ([1]; 303.15 K): 1.67
sb × 10^6 (concentration in buffer) ([1]; 308.15 K): 7.80 mol∙L^−1 (printed as sb × 10^6
so × 10^4 (concentration in 1-octanol) ([1]; 308.15 K): 3.91 mol∙L^−1 (printed as so × 10^4
xb × 10^7 (mole fraction in buffer) ([1]; 308.15 K): 1.42 mole fraction (printed as xb ×
xo × 10^5 (mole fraction in 1-octanol) ([1]; 308.15 K): 6.24 mole fraction (printed as xo ×
sb × 10^6 (concentration in buffer) ([1]; 313.15 K): 7.36 mol∙L^−1 (printed as sb × 10^6
so × 10^4 (concentration in 1-octanol) ([1]; 313.15 K): 3.92 mol∙L^−1 (printed as so × 10^4
xb × 10^7 (mole fraction in buffer) ([1]; 313.15 K): 1.35 mole fraction (printed as xb ×
xo × 10^5 (mole fraction in 1-octanol) ([1]; 313.15 K): 6.28 mole fraction (printed as xo ×
MIC ([2]; Lodderomyces parapsilosis, ATCC22019, 35 °C, 24 h, read-out: MIC): 0.25 µg/mL (≈ 0.379 µM)
MIC relative to the reference value (fluconazole) (C. glabrata 61L): four times less
MIC (C. glabrata 61L; Nakaseomyces glabratus, 35 °C, 24 h, read-out: MIC): 2 µg/mL (≈ 3.03 µM)
MIC (C. utilis 84; Williopsis jadinii, 35 °C, 24 h, read-out: MIC): 2 µg/mL (≈ 3.03 µM)
T∆trS^o [3]: 5.81 ± 0.239 kcal/mol
∆trG^o [3]: -3.54 ± 0.048 kcal/mol
∆trH^o [3]: 2.27 ± 0.024 kcal/mol
∆trS^o [3]: 81.5 ± 1.5 J·mol^−1·K^−1
Compound: O=c1c2sc(=S)n(-c3ccc(Cl)cc3)c2ncn1CCCN1CCN(CC(O)(Cn2cncn2)c2ccc(F)cc2F)CC1 (stereo not shown) [III, 6-[3-[4-[2-(2,4-difluorophenyl)-2-hydroxy-3-(1H-1,2,4-triazol-1-yl)propyl]-1-piperazinyl]propyl]-2,3-dihydro-3-(4-chlorophenyl)-2-thioxo-thiazolo[4,5-d]pyrimidin-7(6H)-one]
advantage over fluconazole ([2]; MIC ratio): 8 fold
activity relative to fluconazole (C. utilis 84): comparable
